Results taken from patent publication US20110076258A1, “METHODS OF MODULATING T CELL- DEPENDENT IMMUNE RESPONSES” (Converge Biotech Inc., priority 2008, published 2011).

Legend:
[1] = test system: naïve CD4 crt^−/− and crt^+/+ T cells; assay: CD62L re-expression after activation with plate bound CD3 and CD28 antibodies (FACS); assay type: cell-based, mouse; conditions: crt^−/− and wild-type cells, 38 h
Procedure: FIG. 3: Mitochondrial Ca^2+ uptake during T cell activation leads to ATP synthesis and release. • a) ATP synthesis at different time points after T cell activation with CD3 antibodies in crt^−/− and crt^+/+ sorted naïve CD4^+ T cells (see Example 2). • b) ATP production upon T cell activation in the absence (control) or presence of the ATP synthetase inhibitor oligomycin. • c) FACS profile of CD62L expression on the surface of sorted naïve CD4 crt^−/− and crt^+/+ T cells at 38 h following activation with plate bound CD3 and CD28 antibodies. The same experiment was performed in the presence of oATP. • d) Naïve CD4^+ T cells were stained with the nucleotide binding compound quinacrine (see Example 2). The homogenous cytosolic staining indicates the absence of secretory vesicles containing ATP. • e) Subcellular fractionation of non-stimulated and activated naïve T cells on a continuous sucrose gradient (see Example 2). ATP was detected only in fractions containing also the cytosolic protein Zap-70 and not in those characterized by the small vesicular marker cellubrevin.
This shedding is thought to be inhibited by the P2X receptor antagonist oATP (Gu et al., Blood 92:946-951 (1998)). In vitro T cell activation of CD4 naïve T cells causes shedding of CD62L, which is progressively re-expressed following TCR triggering.

naïve CD4^+ T cells = assay: IL-2 ELISA in culture supernatants, plate-bound CD3 and CD28 stimulation; assay type: cell-based, mouse; conditions: versus untreated cells, 48 h
Excerpt: An inhibitory effect of oATP on peripheral blood T cell proliferation has been described (Baricordi et al., Blood 87:682-690 (1996)). […] We therefore hypothesize that ATP released from activated T cell is part of an autocrine loop, which plays an essential role in productive T cell activation.

[2] = test system: OVA-specific T cell clones; assay: Calcium imaging of CD3 responsiveness after pre-stimulation (anergy); assay type: cell-based, mouse; conditions: pre-incubated 16 h
Excerpt: (§1) NFAT nuclear translocation without concomitant MAPK activation, which can be obtained by ionomycin treatment, implements a transcriptional program leading to T cell anergy (Macian et al., Cell 109:719-731 (2002)). […] Then, we hypothesized that activation of T cells in the presence of oATP could induce T cell anergy. […] The effect of oATP was not due to altered turn-over of the TCR/CD3 complex at the cell surface, as determined by FACS analysis (data not shown).

Egr2 and Egr3 = assay: Real-time PCR of anergy related genes Egr2 and Egr3; assay type: cell-based, mouse; conditions: 2 h and 16 h after T cell activation
Excerpt: as §1

human T cells = assay: Proliferation of CFSE-loaded T cells, plate-bound anti-CD3/28 (FACS); assay type: cell-based; conditions: 100 μM oATP or 200 μM of PX10 peptide, four days
Procedure: Our results point to a role for pannexin hemichannels in ATP release in T cells. […] CFSE-loaded human T cells were stimulated with plate-bound anti-CD3/28 antibodies in the presence of 100 μM oATP or 200 μM of PX10 peptide. Four days later, the proliferation was measured by FACS analysis.

NZB/NZW F1 mice = assay: Systemic lupus erythematosus / glomerulonephritis model; assay type: in vivo, mouse
Procedure: Graph representing protein concentration in urine from NZB/NZW Fi mice treated either with PBS (control) or oATP. 25-week -old female mice received either PBS or oATP intravenously (3 mM in 100 μl, five days treatment, 2 days break) for 6 weeks (see Example 14). Ten animals received PBS and ten animals received oATP.
Twenty-five week-old NZB/NZW F1 female mice were injected intravenously with either PBS or oATP (3 mM in 100 μl, five days treatment, 2 days break) for six weeks and examined for proteinuria (upper panel) and other indicated parameters (lower panels) (see Example 14). **: P<0.01; ***: P<0.001.
Effector/memory (CD44^+CD62L^−) CD4^+ cells recovered from the spleen of 25 week-old NZB/NZW F1 female mice treated either with PBS or oATP (upper panel); IFN-γ and IL-4 secretion by CD4^+ effector/memory T cells stimulated with plate bound anti-CD3 and anti-CD28 antibodies for 48 h detected by ELISA (lower panels) (see Example 14). **: P<0.01; ***: P<0.001.
Systemic lupus erythematosus (SLE), or its mouse model NZB/NZW F1 (Andrews et al., J. Exp. Med. 148:1198-1215 (1978)), is a chronic inflammatory disease characterized by polyclonal B cell activation with subsequent hypergammaglobulinemia and organ injury caused by immune complex deposits. Because CD4^+ T cells play a crucial role in the onset and propagation of the disease, we analyzed whether oATP treatment might ameliorate disease symptoms. Female NZB/NZW F1 mice at 25 weeks old (when most animals display proteinuria) received either PBS or oATP intravenously (3 mM in 100 μl, five days treatment, 2 days break) for 6 weeks. The proteinuria values were measured before the first treatment and at regular intervals after three weeks of oATP administration. […] Restimulation of sorted effector/memory T cells led to lower levels of IL-4 and IFNγ secretion in cells derived from oATP treated animals (18. 16, lower panels).

crt^−/− FLC = assay: Graft-versus-host disease-like phenotype of crt^−/− fetal liver chimeras; assay type: in vivo, mouse
Procedure: Phenotype of crt^−/− FLC before treatment and after daily intravenous treatment with PBS or 6 mM oATP (100 μl) for 2 weeks (see Example 16).
Histopathological evaluation of skin biopsies executed in a blinded fashion. The graphs show selected examples of dramatic results seen with oATP treatment (see Example 16).
Recombinase-deficient Balb/c mice were reconstituted with hematopoietic progenitors from fetal liver of calreticulin (crt)^−/− and +/+E13 embryos (FIG. 21). The phenotype of the resulting crt^−/− fetal liver chimera (FLC), which mimics graft-versus-host disease (GVHD) (see, e.g., Porcellini et al., J Exp Med 203:461-471 (2006)), was assessed at weeks 8, 10 and 12 after transfer and compared to the phenotype of the crt^+/+ FLC at week 12.
crt^+/+ and crt^−/− FLCs received daily intravenous treatment with PBS or 6 mM oATP (100 μL) for two weeks.

Structure (SMILES): Nc1ncnc2c1ncn2[C@@H](C=O)O[C@@H](C=O)COP(=O)(O)OP(=O)(O)OP(=O)(O)O [oATP]
- CD62L re-expression after activation [1]: enhanced and identical re-expression efficiency
- IL-2 in the cell culture supernatant (naïve CD4^+ T cells): significant reduction
- responsiveness in calcium imaging of previously stimulated T cells [2]: reduced responsiveness
- Egr2 and Egr3 transcripts (Egr2 and Egr3): significant upregulation
- T cell proliferation (human T cells): strongly inhibited
- proteinuria levels (NZB/NZW F1 mice; 3 mM in 100 μl i.v., five days treatment, 2 days break, 6 weeks): remained similar to pre-treatment levels
- IL-4 and IFNγ secretion of restimulated sorted effector/memory T cells (NZB/NZW F1 mice; anti-CD3 and anti-CD28, 48 h, ELISA): lower levels
- Histopathological scoring of kidneys: glomerular proliferation, lymphomonocytic infiltration and immune complex deposition (NZB/NZW F1 mice; mouse, in vivo): significant reduction
- number of effector/memory T cells in spleen and lymph nodes (NZB/NZW F1 mice; mouse, in vivo): significantly reduced
- histopathological evaluation of skin biopsies (inflammation and epidermal hyperplasia) (crt^−/− FLC; blinded): histological improvement
- blepharitis (crt^−/− FLC; daily i.v. 6 mM oATP (100 μL) for two weeks): dramatically ameliorated
- cellular damage due to toxicity, PI staining versus untreated (crt^−/− CD4^+ T cells): did not reveal any difference
